In patent US20240133870A1, “COMBINED TREATMENT FOR CANCER” (Yeda Research and Development Co. Ltd., priority 2021, published 2024):

Assays:
G361 melanoma cells = experiment: FGFR inhibitor abrogation of factor-mediated resistance (GFP, rScore); format: cell-based, human; conditions: vemurafenib 2 μM; EMAPII or AIMP1 10 ng/ml; FGFR inhibitor 0.5 μM
Procedure: PLX4720—BRAFi, 2 μM; PD184352—MEKi, 1 μM, EMAPII—50 ng/ml. P-value of the difference between GFP(drug)/GFP(no-treatment) and GFP(drug+EMAPII)/GFP(no-treatment), at day 7, was calculated by two-sided t-test. ** p<0.01, *** p<0.001. Average rScore (+/−SE) was calculated from at least four different experiments. […] A total of 69 experiments are shown. […] The effect of FGF2 (10 ng/ml), EMAPII (10 ng/ml) or AIMP1 (10 ng/ml) on G361 μmelanoma cells treated with vemurafenib (2 μM) was measured with or without the FGFR inhibitor PD17307 (0.5 μM). Data represent an average of 4 to 8 experiments. P-value was calculated by two-sided t-test. *** p<0.001. Error bars represent standard error. […] 18 putative AIMP1 receptors were knocked down by shRNAs (on average 6.8 shRNAs/gene) in the G361 cell line. shRNAs toward luciferase served as a negative control. The effect of AIMP1 (50 ng/ml) on the sensitivity to PLX4720 (2 μM) was tested in all knockdown clones and normalized to no-shRNA control. Results represent the average of 3-8 experiments. Error bars represent standard error. P-values were calculated by two-sided t-test relative to luciferase. * p<0.05, Q-value=0.1. […] The average of 4 experiments is presented. Error bars represent standard error. P-value was calculated by two-sided t-test. *** p<0.001.

HCC4006 xenografts = experiment: EVOC viability; format: cell-based, human; conditions: crizotinib 8 μM added to erlotinib 4 μM
Procedure: Vehicle—DMSO, METi-crizotinib 8 μM, EGFRi—erlotinib 4 μM. Each black dot in a given treatment condition represents a different tumor. P-values were calculated by one-sided t-test. * P<0.05. Error bars represent standard error. […] Viability percentage is presented per treatment. Scale bar represents 50 μm.
Freshly resected tumors were cut to 250 μm slices (Compresstome, VF-300) in cold Williams-E medium (Sigma, W1878). Slices were placed on the surface of titanium meshes which were pre-incubated in DMEM/F-12 (HAM) (01-170-1A, BI) supplemented with 10% FCS, 100 units/ml Penicillin and Streptomycin, 2 μmM Glutamine, […], and 2.5 μg/ml Amphotericin B (sigma, A2942), at 37° C. and 80% oxygen/5% CO2. […]
Immunohistochemistry of EVOC tissues: To assess response therapy, 4 μm FFPE tissue slices were stained with H&E, or with specific antibodies: anti-pERK (Cell Signaling, #4370) followed by HRP conjugated secondary antibody (anti-Rabbit HRP, ZUC032, ZytoChem) and DAB staining (DAB substrate kit, DAB057, ZytoChem). […] All slides were scanned using the Pannoramic SCAN II (3[…]) and analyzed by a pathologist. The percentage of viable cancer cells was morphologically assessed on H&E stained sections by a pathologist as the ratio between viable cancer cell area and total cancer area (viable cancer cells plus necrotic cancer cells).

human NSCLC tumor biopsy = experiment: EVOC of NSCLC patient biopsies, viability; format: cell-based; conditions: treatment-naïve patient; in combination with osimertinib 4 μM
From the text: Error bars represent standard error. […] Scale bar represents 50 μm. […] Error bars represent standard error. […] Scale bar represents 50 μm.
Scale bar represents 50 μm. […] Scale bar represents 50 μm. […] Scale bar represents 50 μm.

H1975 xenografts = experiment: EVOC viability; format: cell-based, human; conditions: added to afatinib 3-4 μM
Procedure: Vehicle—DMSO, FGFRi—AZD4547 2-4 μM, INSRi—linsitinib 2 μM, METi—crizotinib 2-4 μM, EGFRi—afatinib 3-4 μM. Each black dot in a given treatment condition represents a different tumor. P-values were calculated by two-sided t-test. ** P<0.01, * P<0.05. Error bars represent standard error. […] Viability percentage is given per treatment combination. Scale bar represents 50 μm. […] Error bars represent standard error. […] EGFRi—gefitinib 1.6 μM, FGFRi—AZD4547 0.2 μM. The percentage of viable cancer cells was morphologically assessed on H&E stained sections by a pathologist as the ratio between viable cancer cell area and total cancer area (viable cancer cells plus necrotic cancer cells). […] Viability score was calculated based on the entire field of view. […]
Immunohistochemistry of EVOC tissues: To assess response therapy, 4 μm FFPE tissue slices were stained with H&E, or with specific antibodies: anti-pERK (Cell Signaling, #4370) followed by HRP conjugated secondary antibody (anti-Rabbit HRP, ZUC032, ZytoChem) and DAB staining (DAB substrate kit, DAB057, ZytoChem). […] All slides were scanned using the Pannoramic SCAN II (3[sequence]) and analyzed by a pathologist. The percentage of viable cancer cells was morphologically assessed on H&E stained sections by a pathologist as the ratio between viable cancer cell area and total cancer area (viable cancer cells plus necrotic cancer cells).

[1] = tested on: SK-MEL-5 BRAF (V600E) melanoma cells; experiment: Co-culture of stroma (WI-38 or HS-5) and cancer cells; format: cell-based, human; conditions: co-culture with WI-38; inhibitor added to vemurafenib
Procedure: SK-MEL-5 BRAF (V600E) melanoma cells were co-cultured with the lung-derived stromal cell line WI-38 or with the bone marrow-derived stromal cell line HS-5 with or without vemurafenib (4 μM). […] Vehicle—DMSO, EGFRi—gefitinib (0.1 μM), EGFRi/HER2i—lapatinib (10 nM), METi—crizotinib (0.1 μM), FGFRi—AZD4547 (50 nM), NFkB/TNFRi—CAPE (10 μM), TGFBRi-LY2109761 (0.5 μM), gp130i—SC144 (1 nM). […] Error bars represent standard error. […] Error bars represent standard error. […] Human BRAF (V600E) melanoma cell lines UACC62 or G361 were used to generate xenograft tumor models in various tissues of nude mice. When tumors reached a volume of 500-700 μmm^3, they were resected, sliced, and cultured ex-vivo in the presence of different drug combinations or DMSO control. Following 4 days of drug treatment, slices were fixed, embedded in paraffin blocks, and subjected to immunohistochemistry, using anti-pERK antibody, or to immuno-fluorescence, using anti-pFGFR1 antibody. BRAFi (vemurafenib, 4 μM), FGFRi (AZD4547, 2 μM). Scale bar represents 50 μm.
Four hours later, the melanoma BRAF (V600E) mutated cell line SK-MEL-5 was seeded on top of the stromal cells at a concentration of 1700 cells per well, or seeded without stroma. […] Concentrations of the inhibitors were based on dose curves with SK-MEL-5. For each inhibitor of potential mechanism of resistance, the maximal concentration with minimal effect (toxicity) on cell growth was selected (Cmax).
To compare rScore value of stroma-mediated resistance with or without a given inhibitor, the rScore values of each inhibitor in the presence of stroma, was calculated. As a reduction in rScore may stem from mere toxicity of the inhibitor, rather than the abrogation of the stroma mediated resistance, each inhibitor rScore was penalized by its toxicity.
rScoreinhibitor=rScoreinhibitor+(rScorestroma−rScoreinhibitor)*tOxicitY(Cmax)inhibitor

CCN(CC)CCCCNc1ncc2cc(-c3cc(OC)cc(OC)c3)c(NC(=O)NC(C)(C)C)nc2n1 [PD17307]
abrogation of EMAPII/AIMP1-mediated resistance (G361 melanoma cells): abrogates EMAPII/AIMP1-mediated resistance

C[C@@H](Oc1cc(-c2cnn(C3CCNCC3)c2)cnc1N)c1c(Cl)ccc(F)c1Cl [crizotinib]
innate resistance to EGFRi (HCC4006 xenografts): reduced innate resistance to the EGFRi erlotinib | cancer cell viability (human NSCLC tumor biopsy): synergistic killing effect | cell viability (H1975 xenografts): significantly reduced cell viability | abrogation of stroma-mediated resistance to vemurafenib [1]: abrogated the resistance effect of WI-38
